For one data set, the target named is T1, BCRP (Homo sapiens, UniProt Q9UNQ0).
T1 construct: host or cells: MDCK (BCRP-MDCK)
T1 sequence (Q9UNQ0 1-655): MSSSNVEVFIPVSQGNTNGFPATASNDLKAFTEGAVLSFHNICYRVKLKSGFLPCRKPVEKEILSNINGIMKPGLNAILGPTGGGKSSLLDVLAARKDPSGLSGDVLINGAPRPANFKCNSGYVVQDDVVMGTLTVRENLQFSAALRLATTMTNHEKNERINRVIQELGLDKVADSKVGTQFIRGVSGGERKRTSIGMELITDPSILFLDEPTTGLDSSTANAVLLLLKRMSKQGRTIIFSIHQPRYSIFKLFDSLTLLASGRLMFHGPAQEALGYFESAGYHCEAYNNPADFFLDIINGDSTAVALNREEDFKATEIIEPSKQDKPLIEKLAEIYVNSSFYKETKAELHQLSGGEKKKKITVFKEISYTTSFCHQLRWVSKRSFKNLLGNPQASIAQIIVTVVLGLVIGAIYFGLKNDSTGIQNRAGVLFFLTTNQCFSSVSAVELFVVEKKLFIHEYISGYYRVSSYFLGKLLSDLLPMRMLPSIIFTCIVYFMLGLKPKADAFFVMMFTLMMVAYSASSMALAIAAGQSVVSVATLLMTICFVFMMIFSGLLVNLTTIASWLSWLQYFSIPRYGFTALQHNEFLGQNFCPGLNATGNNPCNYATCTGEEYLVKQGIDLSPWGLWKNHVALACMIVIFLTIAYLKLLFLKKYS
As to the kind of experiment: Bidirectional transport in MDCK-BCRP monolayers. The format is in vitro ADME. To be noted: dog, pH 7.4; MDCK-BCRP cells; read-out: Efflux ratio of positive control. Here is the method:
Caco-2 (American Type Culture Collection), MDR1-MDCK (NIH), and BCRP-MDCK (transfected by Absorption Systems) cell monolayers were grown to confluence on collagen-coated, microporous membranes in 12-well assay plates. Caco-2 cells were cultured for 27 days, MDCK-MDR1 and MDCK-BCRP cells were cultured for 8 days prior to experiments. […] The experiment was carried out in Hanks’ balanced salt solution (HBSS) containing 10 mM HEPES and 15 mM glucose at pH 7.4. HBSS in the receiver chamber also contained 1% bovine serum albumin. Cells were first pre-incubated for 0.5 h in HBSS with or without the specific inhibitor (1 µM valspodar or 0.5 µM Ko143 for MDR1 and BCRP, respectively). […] Cell monolayers were dosed on the apical side (A to B) or basolateral side (B to A) and incubated at 37°C with 5% CO2 in a humidified incubator. Samples were taken from the donor and receiver chambers at 2 h. Each experiment was performed in duplicate. All samples were assayed by LC-MS/MS. The apparent permeability (Papp) and percent recovery were calculated as described previously ([Katoh et al., 2006]; [Xia et al., 2006]; [Li et al., 2008]).

Data set [1] in a line: Bidirectional transport in Caco-2 monolayers. The note with it: human, Caco-2, pH 7.4.
The next data set concerns ENT1. The note with it: cited from earlier work.
The next data set has as its system ENT2. To be noted: cited from earlier work.
Data set [2] deals with mild to moderate COVID-19 patients at high risk of progression to severe disease. Also on record: method as in https://www.fda.gov/media/154472/download. To be noted: ref https://www.fda.gov/media/154472/download; cited from earlier work.
In data set [3] the test system is EpiAirway human tracheobronchial epithelial tissues. To be noted: EpiAirway 3D HAE tissue model.
Data set [4] concerns mild to moderate COVID-19 patients at risk of progression to severe disease. Also on record: method as in Gottlieb et al., 2021. The note with it: early 3-day course, ref Gottlieb et al., 2021; cited from earlier work.
Data set [5] relates to SARS-CoV-2 (2019-nCoV/USA-WAl/2020). Format: cell-based. The note with it: EpiAirway 3D HAE tissue model, 24 h.
Data set [6] relates to SARS-CoV-2 (USA_WA1/2020). As to the kind of experiment: SARS-CoV-2 cytopathic effect (CPE) assay in Vero E6 cells. Format: cell-based. To be noted: Severe acute respiratory syndrome coronavirus 2, Vero C1008, 72 h, read-out: EC50, inhibition of SARS-CoV-2 CPE.
Data set [7] concerns hospitalized COVID-19 patients. Also on record: method as in Beigel et al., 2020a. To be noted: treatment group, ref Beigel et al., 2020a; cited from earlier work.
The next data set relates to MDR1. As to the kind of experiment: in vitro. To be noted: dog, MDCK-MDR1, pH 7.4.

As for `Nc1nc(Cl)nc2c1ncn2[C@H]1C[C@H](O)[C@@H](CO)O1` [cladribine, reference compound], the efflux ratio at 2 h on BCRP is 153; in [1], 26.

For `O=c1nc(NO)ccn1[C@@H]1O[C@H](CO)[C@@H](O)[C@H]1O` [EIDD-1931, N-hydroxycytidine], in the data set with ENT1, the “Inhibitor of ENT1” value is “inhibitors”. Also, the “Inhibitor of ENT2” value in the data set with ENT2 is given as “inhibitors”.

Consider `CC(C)C(=O)OC[C@H]1O[C@@H](n2ccc(NO)nc2=O)[C@H](O)[C@@H]1O` [EIDD-2801], for which, in the data set with ENT1, the “Inhibitor of ENT1” value was “inhibitors”. In addition, the “Inhibitor of ENT2” value with ENT2 is “inhibitors”. Further, in data set [2], the “Reduction of progression to hospitalization of death compared to placebo” value is given as 30%.

In the case of `CCC(CC)COC(=O)[C@H](C)N[P@](=O)(OC[C@H]1O[C@@](C#N)(c2ccc3c(N)ncnn23)[C@H](O)[C@@H]1O)Oc1ccccc1` [remdesivir], in [3], the Cytotoxicity result is on record as “did not exhibit any cytotoxicity”. Also, the “Reduction of progression to hospitalization or death” value in data set [4] was 87%. Besides, in [5], the “Potency on viral titer (TCID50) at 24 h” value is recorded as “lower potency than EIDD-2801”. Besides, in data set [6], the concentration for a half-maximal effect (EC50) is 7.43 µM. Moreover, the “Reduction of time to recovery” value in data set [7] is reported as 33%.

`C[C@H]1O[C@@H](O[C@H]2[C@@H](O)C[C@H](O[C@H]3[C@@H](O)C[C@H](O[C@H]4CC[C@@]5(C)[C@H](CC[C@@H]6[C@@H]5C[C@@H](O)[C@]5(C)[C@@H](C7=CC(=O)OC7)CC[C@]65O)C4)O[C@@H]3C)O[C@@H]2C)C[C@H](O)[C@@H]1O` [digoxin, reference compound]: the values for the efflux ratio at 2 h (in the data set on MDR1; in [1]) were 110 and 27, respectively.

(Values after PMC9424906 (Frontiers in Pharmacology, 2022).)
